Assay results taken from patent publication US9409952B2, “Peptide-compound cyclization method” (Chugai Seiyaku Kabushiki Kaisha, priority 2011, dated 2016).
Like-named read-outs stand apart in the source and are kept apart here. Starred links: 1 amine or outer side, 2 acyl side, 3 side chain; linkers in the order of their positions; H or OH if unused. Positions of bridges follow the written chain, without caps; N, C: chain ends. Non-standard residues stand in square brackets, D forms with d. Residues, ends and D or L forms follow the SMILES beside them. *: point of attachment. NMeF = CN[C@@H](Cc1ccccc1)C(=O)O; NMeGABA = CN(CCCC(=O)[*:2])[*:1]; NMeL = CN[C@@H](CC(C)C)C(=O)O; NMeA = CN[C@@H](C)C(=O)O; Piperidide = C1CCN(*)CC1; dNMeA = CN[C@H](C)C(=O)O; Sar = CNCC(=O)O; tBu = CC(C)(C)*

Legend:
[1] = Metabolic stability in human hepatic microsome; type: in vitro ADME; settings: microsomes
[2] = PAMPA (parallel artificial membrane permeability assay); type: in vitro ADME; settings: PAMPA
Procedure, shortened: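 Artificial membrane was 10% (w/v) egg lecithin plus 0.5% (w/v) cholesterol in dodecane on a PVDF filter. A 10 mM DMSO stock was added at 0.5% (v/v) to donor buffer (50 mM MOPSO, pH 6.5, 5.0% glycocholic acid). After 18 h at 37 °C, LC/MS or LC/UV gave donor and acceptor levels for Pe.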

[3] = pH 7.4, human hepatic microsome, NADPH(+), read-out: CL NADPH(+)
[4] = membrane permeation rate (Pe), 50 mM MOPSO buffer pH 6.5 with 5.0% glycocholic acid, 37° C., 18 hours, read-out: iPAMPA Pe

SMILES | microsomal CLint at 1 uM [1, 3] [µL/min/mg] | Papp at 18 hours, 50 µM [2, 4] [×10⁻⁶ cm/s] | microsomal CLint at 1 uM ([1]; human, pH 7.4, CL NADPH(+)) [µL/min/mg] | Papp at 18 hours, 50 µM ([2]; pH 6.5) [×10⁻⁶ cm/s]
CC(C)C[C@@H]1NC(=O)[C@H](C)NC(=O)C[C@@H](C(=O)N2CCCCC2)NC(=O)[C@H](Cc2ccccc2)N(C)C(=O)[C@H](CC(C)C)N(C)C(=O)[C@H](C)NC(=O)[C@H](Cc2ccccc2)N(C)C(=O)[C@H](CC(C)C)N(C)C1=O [DP-673] (AL[NMeL][NMeF]A[NMeL][NMeF]D-Piperidide; lactam N-8) | 631 | 30 |  | 
CC(C)C[C@H]1C(=O)N(C)[C@@H](C)C(=O)N(C)[C@@H](Cc2ccccc2)C(=O)N[C@@H](COC(C)(C)C)C(=O)N[C@H](C(=O)N2CCCCC2)CC(=O)N(C)CCCC(=O)N[C@@H]([C@@H](C)O)C(=O)N1C [DP-677] ([NMeGABA]T[NMeL][NMeA][NMeF]S(tBu)D-Piperidide; lactam N-7) | 45 | 7.2 |  | 
CC(C)C[C@H]1C(=O)N[C@H](C(=O)N2CCCCC2)CC(=O)N(C)[C@@H](C)C(=O)N(C)[C@@H](Cc2ccccc2)C(=O)N(C)[C@@H](CC(C)C)C(=O)N[C@@H]([C@@H](C)O)C(=O)N(C)[C@@H](C)C(=O)N1C [DP-678] ([NMeA][NMeF][NMeL]T[NMeA][NMeL]D-Piperidide; lactam N-7) | 284 | 26 |  | 
CC(C)C[C@H]1C(=O)N(C)[C@@H](CC(C)C)C(=O)N[C@H](C(=O)N2CCCCC2)CC(=O)N(C)[C@@H](C)C(=O)N(C)[C@@H](Cc2ccccc2)C(=O)N(C)[C@@H](CC(C)C)C(=O)N[C@@H]([C@@H](C)O)C(=O)N1C [DP-679] ([NMeA][NMeF][NMeL]T[NMeL][NMeL]D-Piperidide; lactam N-7) | 342 | 25 |  | 
CC(C)C[C@H]1C(=O)N[C@H](C(=O)N2CCCCC2)CC(=O)N(C)CCCC(=O)N(C)[C@@H](Cc2ccccc2)C(=O)N[C@@H]([C@@H](C)O)C(=O)N(C)[C@@H](C)C(=O)N[C@@H](COC(C)(C)C)C(=O)N1C [DP-680] ([NMeGABA][NMeF]T[NMeA]S(tBu)[NMeL]D-Piperidide; lactam N-7) | 96 | 15 |  | 
CC(C)C[C@H]1C(=O)N[C@H](C(=O)N2CCCCC2)CC(=O)N(C)CCCC(=O)N(C)[C@@H](Cc2ccccc2)C(=O)N[C@@H]([C@@H](C)O)C(=O)N(C)[C@@H](CC(C)C)C(=O)N[C@@H](COC(C)(C)C)C(=O)N1C [DP-681] ([NMeGABA][NMeF]T[NMeL]S(tBu)[NMeL]D-Piperidide; lactam N-7) | 275 | 28 |  | 
CC(C)C[C@H]1C(=O)N[C@H](C(=O)N2CCCCC2)CC(=O)N(C)[C@H](C)C(=O)N(C)[C@@H](Cc2ccccc2)C(=O)N(C)[C@@H](CC(C)C)C(=O)N[C@@H]([C@@H](C)O)C(=O)N(C)[C@@H](C)C(=O)N[C@@H](COC(C)(C)C)C(=O)N1C [DP-682] ([dNMeA][NMeF][NMeL]T[NMeA]S(tBu)[NMeL]D-Piperidide; lactam N-8) | 20 | 13 |  | 
CC(C)C[C@H]1C(=O)N[C@H](C(=O)N2CCCCC2)CC(=O)N(C)[C@H](C)C(=O)N(C)[C@@H](Cc2ccccc2)C(=O)N(C)[C@@H](CC(C)C)C(=O)N[C@@H]([C@@H](C)O)C(=O)N(C)[C@@H](CC(C)C)C(=O)N[C@@H](COC(C)(C)C)C(=O)N1C [DP-683] ([dNMeA][NMeF][NMeL]T[NMeL]S(tBu)[NMeL]D-Piperidide; lactam N-8) | 53 | 32 |  | 
CC(C)C[C@H]1C(=O)N[C@H](C(=O)N2CCCCC2)CC(=O)N[C@H](C)C(=O)N(C)[C@@H](Cc2ccccc2)C(=O)N(C)[C@@H](CC(C)C)C(=O)N[C@@H]([C@@H](C)O)C(=O)N(C)[C@@H](CC(C)C)C(=O)N[C@@H](COC(C)(C)C)C(=O)N1C [DP-684] ([dA][NMeF][NMeL]T[NMeL]S(tBu)[NMeL]D-Piperidide; lactam N-8) | 126 | 23 |  | 
CC(C)C[C@H]1C(=O)N(C)[C@@H](CC(C)C)C(=O)N[C@H](C(=O)N2CCCCC2)CC(=O)N(C)CCCC(=O)N(C)[C@@H](Cc2ccccc2)C(=O)N[C@@H]([C@@H](C)O)C(=O)N(C)[C@@H](C)C(=O)N[C@@H](COC(C)(C)C)C(=O)N1C [DP-685] ([NMeGABA][NMeF]T[NMeA]S(tBu)[NMeL][NMeL]D-Piperidide; lactam N-8) | 90 | 28 |  | 
CC(C)C[C@H]1C(=O)N(C)[C@@H](CC(C)C)C(=O)N[C@H](C(=O)N2CCCCC2)CC(=O)N(C)CCCC(=O)N(C)[C@@H](Cc2ccccc2)C(=O)N[C@@H]([C@@H](C)O)C(=O)N(C)[C@@H](CC(C)C)C(=O)N[C@@H](COC(C)(C)C)C(=O)N1C [DP-686] ([NMeGABA][NMeF]T[NMeL]S(tBu)[NMeL][NMeL]D-Piperidide; lactam N-8) | 227 | 36 |  | 
CC(C)C[C@@H]1NC(=O)[C@H](Cc2ccccc2)N(C)C(=O)[C@H]([C@@H](C)O)NC(=O)[C@H](Cc2ccccc2)N(C)C(=O)[C@H](C)N(C)C(=O)[C@H](C)N(C)C(=O)C[C@@H](C(=O)N2CCCCC2)NC(=O)[C@@H]2CCCN2C1=O [DP-687] ([NMeA][NMeA][NMeF]T[NMeF]LPD-Piperidide; lactam N-8) |  |  | 10 | 10
CC(C)C[C@@H]1NC(=O)[C@H](Cc2ccccc2)N(C)C(=O)[C@H]([C@@H](C)O)NC(=O)[C@H](Cc2ccccc2)N(C)C(=O)[C@H](C)N(C)C(=O)[C@H](CC(C)C)N(C)C(=O)C[C@@H](C(=O)N2CCCCC2)NC(=O)[C@@H]2CCCN2C1=O [DP-688] ([NMeL][NMeA][NMeF]T[NMeF]LPD-Piperidide; lactam N-8) |  |  | 23 | 17
CC(C)C[C@H]1C(=O)N(C)[C@@H](Cc2ccccc2)C(=O)N(C)[C@@H](CC(C)C)C(=O)N[C@@H]([C@@H](C)O)C(=O)N(C)CC(=O)N[C@@H](COC(C)(C)C)C(=O)N(C)[C@@H](CC(C)C)C(=O)N[C@H](C(=O)N2CCCCC2)CC(=O)N1C [DP-689] ([NMeL][NMeF][NMeL]T[Sar]S(tBu)[NMeL]D-Piperidide; lactam N-8) | 103 | 44 |  | 
CC(C)C[C@@H]1NC(=O)[C@H]([C@@H](C)O)NC(=O)[C@H](CC(C)C)N(C)C(=O)CN(C)C(=O)[C@H](Cc2ccccc2)N(C)C(=O)[C@H](C(C)C)NC(=O)C[C@@H](C(=O)N2CCCCC2)NC(=O)[C@H](CC(C)C)N(C)C1=O [DP-690] (V[NMeF][Sar][NMeL]TL[NMeL]D-Piperidide; lactam N-8) | 217 | 33 |  | 
CC(C)C[C@@H]1NC(=O)CN(C)C(=O)[C@H](CC(C)C)N(C)C(=O)[C@H]([C@@H](C)O)NC(=O)[C@H](CC(C)C)N(C)C(=O)[C@H](Cc2ccccc2)N(C)C(=O)[C@H](C(C)C)NC(=O)C[C@@H](C(=O)N2CCCCC2)NC1=O [DP-691] (V[NMeF][NMeL]T[NMeL][Sar]LD-Piperidide; lactam N-8) | 326 | 33 |  | 
CC(C)C[C@@H]1NC(=O)C[C@@H](C(=O)N2CCCCC2)NC(=O)[C@H](COC(C)(C)C)NC(=O)[C@H](CC(C)C)N(C)C(=O)CN(C)C(=O)[C@H]([C@@H](C)O)NC(=O)[C@H](CC(C)C)N(C)C(=O)[C@H](Cc2ccccc2)N(C)C1=O [DP-692] (L[NMeF][NMeL]T[Sar][NMeL]S(tBu)D-Piperidide; lactam N-8) | 212 | 29 |  | 
CC(C)C[C@H]1C(=O)N(C)[C@@H](CC(C)C)C(=O)N[C@H](C(=O)N2CCCCC2)CC(=O)N[C@@H](C(C)C)C(=O)N(C)[C@@H](Cc2ccccc2)C(=O)N[C@@H]([C@@H](C)O)C(=O)N(C)CC(=O)N[C@@H](COC(C)(C)C)C(=O)N1C [DP-693] (V[NMeF]T[Sar]S(tBu)[NMeL][NMeL]D-Piperidide; lactam N-8) | 246 | 35 |  | 
CC(C)C[C@H]1C(=O)N(C)[C@@H](CC(C)C)C(=O)N[C@@H](COC(C)(C)C)C(=O)N[C@H](C(=O)N2CCCCC2)CC(=O)N[C@@H](C(C)C)C(=O)N(C)[C@@H](Cc2ccccc2)C(=O)N(C)CC(=O)N[C@@H]([C@@H](C)O)C(=O)N1C [DP-694] (V[NMeF][Sar]T[NMeL][NMeL]S(tBu)D-Piperidide; lactam N-8) | 170 | 33 |  | 
CC(C)C[C@H]1C(=O)N(C)[C@@H](CC(C)C)C(=O)N[C@@H](COC(C)(C)C)C(=O)N[C@H](C(=O)N2CCCCC2)CC(=O)N(C)CCCC(=O)N(C)[C@@H](Cc2ccccc2)C(=O)N[C@@H]([C@@H](C)O)C(=O)N(C)CC(=O)N1C [DP-695] ([NMeGABA][NMeF]T[Sar][NMeL][NMeL]S(tBu)D-Piperidide; lactam N-8) | 47 | 15 |  | 
CC(C)C[C@@H]1NC(=O)[C@H]([C@@H](C)O)NC(=O)[C@H](CC(C)C)N(C)C(=O)[C@H](Cc2ccccc2)N(C)C(=O)[C@H](C)N(C)C(=O)C[C@@H](C(=O)N2CCCCC2)NC(=O)[C@H](COC(C)(C)C)NC(=O)[C@H](CC(C)C)N(C)C1=O [DP-696] ([NMeA][NMeF][NMeL]TL[NMeL]S(tBu)D-Piperidide; lactam N-8) | 194 | 37 |  | 
CC(C)C[C@H]1C(=O)N[C@H](C(=O)N2CCCCC2)CC(=O)N(C)[C@@H](C)C(=O)N(C)[C@@H](Cc2ccccc2)C(=O)N(C)[C@@H](CC(C)C)C(=O)N[C@@H]([C@@H](C)O)C(=O)N(C)CC(=O)N[C@@H](COC(C)(C)C)C(=O)N1C [DP-697] ([NMeA][NMeF][NMeL]T[Sar]S(tBu)[NMeL]D-Piperidide; lactam N-8) | 87 | 35 |  | 
